Source: patent publication US20200069592A1, “HSP90 INHIBITOR ORAL FORMULATIONS AND RELATED METHODS” (Samus Therapeutics, Inc., priority 2017, published 2020)
Where two headings read alike, the source gives them in different places.

Experiment: Solubility / compatibility testing in drinking solution vehicles and ingredients (Example 7)
Format: physicochemical
Source text: This Example examined drinking solution vehicles for Compound 1 2HCl. Initially Orasweet® Sugar Free options were explored as a vehicle for Compound 1 2HCl.
ORA-Sweet®, commerically available from Perrigo, comprises purified water, sucrose, glycerine, sorbitol, and flavouring. ORA-Sweet® is buffered with citric acid and sodium phosphate and preserved with methylparaben and potassium sorbate.
ORA-Sweet® Sugar Free, commerically available from Perrigo, comprises purified water, glycerine, sorbitol, sodium saccharin, xanthan gum, and flavouring. It is buffered with citric acid and sodium citrate and preserved with methylparaben (0.03%), potassium sorbate (0.1%), and propylparaben (0.008%).
SyrSpend® SF Cherry, commercially available from Fargon, comprises purified water, modified food starch, sodium citrate, citric acid, sucralose, sodium benzoate (<0.1% preservative), sorbic acid, malic acid and simethicone.
SyrSpend® SF Alka, commercially available from Fargon, comprises modified starch, calcium carbonate and sucralose.
(§1) ORA-Blend®, commerically available from Perrigo, comprises purified water, sucrose, glycerin, sorbitol, flavoring, microcrystalline cellulose, carboxymethylcellulose sodium, xanthan gum, carrageenan, calcium sulfate, trisodium phosphate, citric acid and sodium phosphate as buffers, dimethicone antifoam emulsion and preserved with methylparaben and potassium sorbate.
as §1, with “ORA-Plus®,” for “ORA-Blend®,”, “water,” for “water, sucrose, glycerin, sorbitol, flavoring,”

For `CC(C)NCCCn1c(Sc2cc3c(cc2I)OCO3)nc2c(N)ncnc21` [Compound 1 2HCl], the solubility (50% Flavor Sweet SF in water, aqueous with cosolvent or surfactant or cyclodextrin, API in 50% Flavor Sweet SF/H2O, read-out: Solubility testing result: Precipitate at) was under 5000 µg/mL, the solubility (50% Versa Free in water, aqueous with cosolvent or surfactant or cyclodextrin, API in 50% Versa Free/H2O, read-out: Solubility testing result: Precipitate at) was under 5000 µg/mL and the solubility (Flavor Sweet (sugar free) vehicle, aqueous with cosolvent or surfactant or cyclodextrin, API in Flavor Sweet (sugar free), read-out: Solubility testing result: Precipitate at) was under 5000 µg/mL. For the same molecule, the “Compatibility with drinking solution vehicle” value (Orasweet Sugar Free formulations (contain xanthan gum)) was “incompatibility”, the solubility (Versa Free vehicle, aqueous with cosolvent or surfactant or cyclodextrin, API in Versa Free, read-out: Solubility testing result: Precipitate at) was under 5000 µg/mL and the solubility (glycerin in 50% water, aqueous with cosolvent or surfactant or cyclodextrin, read-out: Ingredient solubility testing) was over 10000 µg/mL. The solubility (glycerin, organic solvent or mixture, read-out: Ingredient solubility testing) was over 6000 µg/mL.
